Drawing on ChEMBL document CHEMBL1134463 (2001), this text covers Activity for eight compounds.

In test [1] the target is Neuronal acetylcholine receptor subunit alpha-7 (Rattus norvegicus) (UniProt Q05941). In words: Agonistic activity against rat nicotinic acetylcholine receptor alpha-7 expressed in Xenopus oocytes. Format: functional, cell-based. Conditions: Oocyte.
For another test, the species on record is Rattus norvegicus. Kind of test: Agonistic activity against Rat muscle Nicotinic Receptor. Format: functional.
Test [2] deals with Neuronal acetylcholine receptor alpha4/beta2 (Rattus norvegicus). In words: Agonistic activity against rat Nicotinic acetylcholine receptor alpha4-beta2 expressed in Xenopus oocytes. Conditions: Oocyte.
Test [3] concerns Neuronal acetylcholine receptor alpha3/beta4 (Rattus norvegicus). Kind of test: Agonistic activity against Alpha3 beta-4 Nicotinic receptor from Xenopus oocytes expressing recombinant nAChR from rat. Conditions: Oocyte.
In test [4] the target is Neuronal acetylcholine receptor subunit alpha-7 (Rattus norvegicus) (UniProt Q05941). Kind of test: Agonistic activity against rat nicotinic acetylcholine receptor alpha-7 expressed in Xenopus oocytes; NA=inactive. Format: functional, cell-based. Conditions: Oocyte.
Test [5] concerns the target T1, Neuronal acetylcholine receptor; alpha3/beta4 (Homo sapiens) (UniProt P30926+P32297). In words: Agonistic activity against Alpha3 beta4 Nicotinic receptor from Xenopus oocytes expressing recombinant nAChR from rat; NA=inactive. Type of test: functional, cell-based. Conditions: Oocyte.
In test [6] the target is Neuronal acetylcholine receptor; alpha4/beta2 (Homo sapiens) (UniProt P17787+P43681). Kind of test: Agonistic activity against rat Nicotinic acetylcholine receptor alpha4-beta2 expressed in Xenopus oocytes; NA=inactive. Format: functional, cell-based. Conditions: Oocyte.
Test [7] concerns the target T1, Neuronal acetylcholine receptor; alpha3/beta4 (Homo sapiens). In words: Agonistic activity against rat Alpha3 beta-4 Nicotinic Receptor expressed in Xenopus oocytes; NA=inactive. Format: functional, cell-based. Conditions: Oocyte.
Test [8] shares this target. Kind of test: Agonistic activity against rat Alpha3 beta-4 Nicotinic Receptor expressed in Xenopus oocytes. Format: functional, cell-based. Conditions: Oocyte.

Molecules are shown by their SMILES. Active and inactive are the calls of the source. The rule behind the calls is not given here.

Chain of Neuronal acetylcholine receptor subunit alpha-7 (Rattus norvegicus) (Q05941 whole entry): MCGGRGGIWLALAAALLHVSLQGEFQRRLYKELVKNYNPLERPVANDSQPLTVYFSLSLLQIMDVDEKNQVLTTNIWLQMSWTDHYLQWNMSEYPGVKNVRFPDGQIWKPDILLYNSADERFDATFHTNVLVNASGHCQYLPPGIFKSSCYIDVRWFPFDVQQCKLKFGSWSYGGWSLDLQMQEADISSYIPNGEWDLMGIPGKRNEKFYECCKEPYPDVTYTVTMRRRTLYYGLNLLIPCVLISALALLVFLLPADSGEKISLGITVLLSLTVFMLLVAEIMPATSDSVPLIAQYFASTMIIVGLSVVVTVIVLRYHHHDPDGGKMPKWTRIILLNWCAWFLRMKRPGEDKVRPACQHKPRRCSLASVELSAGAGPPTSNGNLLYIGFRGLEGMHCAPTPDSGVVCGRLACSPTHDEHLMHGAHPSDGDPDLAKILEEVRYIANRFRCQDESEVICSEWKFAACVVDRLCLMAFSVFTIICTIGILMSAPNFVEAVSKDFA

Regarding `CN1CCC[C@H]1c1cccnc1.O=C(O)C(O)C(O)C(=O)O.O=C(O)C(O)C(O)C(=O)O`, the Activity in test [1] was determined as 12.6 µM; in the test filed under Rattus norvegicus, 6.3 µM.

`CN1C2CC[C@@H]1CC2c1ccnnc1` (stereo not given in full): the Activity is 25 µM in test [1], 0.2 µM in the test filed under Rattus norvegicus, 0.013 µM in [2] and 0.32 µM in test [3].

Regarding `FC(F)(F)c1cc(C2CC3CCC2N3)c(C(F)(F)F)nn1` (stereo not given), the result in test [4], in test [5] and in test [6] was inactive.

As for `CCOC(=O)N1C2CC[C@@H]1CC2c1cc(Cl)nnc1Cl` (stereo not given in full), the result in test [4], in test [7] and in test [6] was inactive.

With `CCOC(=O)N1C2CC[C@@H]1CC2c1ccnnc1` (stereo not given in full), the outcome in [4] and in [5] was inactive. Also, the Activity (in the test listed under Rattus norvegicus; in test [2]) was above 100 µM throughout.

On to `CC(=O)OCC[N+](C)(C)C` [ACETYLCHOLINE], for which the Activity in test [1] was 50 µM; in the test listed under Rattus norvegicus, 0.1 µM.

With `Clc1ccc(C2CC3CCC2N3)cn1` (racemic) [EPIBATIDINE], the Activity in [1] is 0.5 µM; in test [8], 0.005 µM; in the test listed under Rattus norvegicus it was 0.03 µM.

`c1cc(C2CC3CCC2N3)cnn1` (stereo not given): the Activity in test [1] was 40 µM; in the test listed under Rattus norvegicus it was 0.16 µM; in test [2] it was 0.02 µM; in test [3], 0.16 µM.
